Assays:
[1] = ABTS radical scavenging assay; assay type: biochemical; settings: mean ± standard deviation
Protocol: (§1) The antioxidant activity of the Dendropanax morbifera ethanol extract was analyzed using an ABTS (2,2′-azino-bis (3-ethylbenzothiazoline-6-sulfonic acid)) assay and a DPPH (1,1-diphenyl-2-picrylhydrazyl) assay. As the experimental result, the concentration of a sample that appeared when the absorbance decreased by 50% was represented as IC50, and ascorbic acid was used as a standard material.
Specifically, in the ABTS method, the ABTS solution was mixed with the extract at a ratio of 20:1 and the absorbance was measured. Light was blocked at room temperature and the results were confirmed at 414 nm after 60 minutes of reaction. The ABTS solution was obtained by dissolving 7.4 mM ABTS and 2.6 mM potassium persulfate in distilled water and stored at 4° C. for 1 day, and adjusted so that a blank value was 1.4 to 1.5.

[2] = DPPH radical scavenging assay; assay type: biochemical; settings: mean ± standard deviation
Protocol: as §1
In the DPPH method, the absorbance was measured by mixing a
DPPH·methanol solution with the sample in a 1:1 ratio. Light was blocked at room temperature and the results were confirmed at 520 nm after 5 minutes of reaction. The DPPH·methanol solution was adjusted so that the blank value was 1.7 to 1.8.

ABTS IC50 [1]: 71 ± 2 µg/mL
DPPH IC50 [2]: 25 ± 1 µg/mL
SMILES: O=C1O[C@H]([C@@H](O)CO)C(O)=C1O [Ascorbic acid]

From patent US20250082705A1, “COMPOSITION FOR IMPROVING, PREVENTING, OR TREATING SLEEP DISORDERS COMPRISING DENDROPANAX MORBIFERA EXTRACTS” (JEJU PANATEK Co., Ltd., priority 2023, published 2025)
